In paper PMC5003509 (Journal of Medicinal Chemistry, 2015):

Experiments:
[1] = Metabolic stability in mouse liver microsomes, glucuronidation; assay type: in vitro ADME; conditions: in the presence of UDPGA
[2] = Metabolic stability in mouse liver microsomes, CYP-mediated; assay type: in vitro ADME; conditions: cofactor for CYP-dependent oxidation
[3] = In vivo pharmacokinetics in CD1 mice; conditions: male, CD1, mouse, plasma, iv, 10 mg/kg
[4] = biological target: recombinant human DAAO (Homo sapiens, UniProt P14920); assay: In vitro DAAO assay; assay type: biochemical
[5] = system: Salmonella typhimurium strain (TA100); assay: Ames test; assay type: cell-based; conditions: TA100, in the presence or absence of metabolic activation by S9 mixture
[6] = biological target: hERG channel (Homo sapiens, UniProt Q12809); assay: hERG channel assay; conditions: concentrations up to 25 μM
[7] = system: NMDA receptor (agonist); assay: NMDA receptor; assay type: binding; conditions: at 10 μM
[8] = system: NMDA receptor (phencyclidine); assay: NMDA receptor; assay type: binding; conditions: at 10 μM
[9] = system: NMDA receptor (MK801); assay: NMDA receptor; assay type: binding; conditions: at 10 μM
[10] = system: glycine receptor (strychnine sensitive); assay: Glycine receptor; assay type: binding; conditions: at 10 μM
[11] = Effect on plasma pharmacokinetics of oral D-serine in mice; conditions: 11h (30 mg/kg, po) with D-serine (30 mg/kg, po)

Sequence of recombinant human DAAO (P14920 whole entry): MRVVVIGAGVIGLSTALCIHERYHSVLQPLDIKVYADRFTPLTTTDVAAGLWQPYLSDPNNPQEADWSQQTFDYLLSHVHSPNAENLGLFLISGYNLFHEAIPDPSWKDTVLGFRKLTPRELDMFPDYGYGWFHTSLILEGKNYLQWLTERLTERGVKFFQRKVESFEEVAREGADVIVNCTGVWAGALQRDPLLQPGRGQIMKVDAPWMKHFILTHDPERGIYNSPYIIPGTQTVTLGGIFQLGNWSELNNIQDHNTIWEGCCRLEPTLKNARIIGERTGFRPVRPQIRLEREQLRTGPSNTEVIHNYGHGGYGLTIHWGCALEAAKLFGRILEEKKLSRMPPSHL
Sequence of hERG channel (Q12809 whole entry): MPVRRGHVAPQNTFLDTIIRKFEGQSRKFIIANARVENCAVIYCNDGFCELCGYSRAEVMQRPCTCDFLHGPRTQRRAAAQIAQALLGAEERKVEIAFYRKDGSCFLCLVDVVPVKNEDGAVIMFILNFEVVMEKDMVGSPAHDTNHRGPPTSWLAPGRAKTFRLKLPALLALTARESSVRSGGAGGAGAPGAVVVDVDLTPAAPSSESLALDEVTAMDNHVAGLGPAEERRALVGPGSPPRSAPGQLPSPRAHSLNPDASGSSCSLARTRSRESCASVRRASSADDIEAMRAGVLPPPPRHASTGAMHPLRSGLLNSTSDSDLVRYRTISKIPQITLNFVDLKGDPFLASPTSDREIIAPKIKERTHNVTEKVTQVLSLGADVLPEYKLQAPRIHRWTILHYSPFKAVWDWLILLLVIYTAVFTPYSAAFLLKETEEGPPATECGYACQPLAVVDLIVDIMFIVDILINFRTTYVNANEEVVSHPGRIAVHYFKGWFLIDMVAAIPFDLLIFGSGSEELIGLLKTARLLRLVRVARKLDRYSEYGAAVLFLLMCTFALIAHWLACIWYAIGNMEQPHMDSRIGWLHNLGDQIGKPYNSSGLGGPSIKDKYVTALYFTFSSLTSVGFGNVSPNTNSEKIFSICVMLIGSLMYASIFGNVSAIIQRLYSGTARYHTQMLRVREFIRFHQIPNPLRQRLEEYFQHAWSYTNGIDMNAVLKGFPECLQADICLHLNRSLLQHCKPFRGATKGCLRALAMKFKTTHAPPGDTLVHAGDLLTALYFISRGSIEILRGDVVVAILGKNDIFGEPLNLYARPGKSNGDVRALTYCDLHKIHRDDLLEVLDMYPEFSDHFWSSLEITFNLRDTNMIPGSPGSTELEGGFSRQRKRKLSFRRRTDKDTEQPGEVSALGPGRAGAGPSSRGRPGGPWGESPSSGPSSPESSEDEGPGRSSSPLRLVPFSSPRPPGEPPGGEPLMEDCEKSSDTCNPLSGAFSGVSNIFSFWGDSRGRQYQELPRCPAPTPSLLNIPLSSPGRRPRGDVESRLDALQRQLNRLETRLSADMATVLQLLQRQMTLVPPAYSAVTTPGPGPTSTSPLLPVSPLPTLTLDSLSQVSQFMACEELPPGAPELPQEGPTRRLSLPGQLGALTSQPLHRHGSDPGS

In the case of `O=c1[nH]c(=O)n(CCc2ccccc2)nc1O` [11e, 6-Hydroxy-2-phenethyl-1,2,4-triazine-3,5(2H,4H)-dione], the “glucuronidation in mouse liver microsomes” value (from here on “glucuronidation”) [1] is reported as “completely resistant to glucuronidation” and the “stability in mouse liver microsomes in the presence of NADPH” value [2] is reported as “stable”.

In the case of `O=c1cc(CSc2ccc(Cl)c(Cl)c2)occ1O` [compound 7, reference compound], the “glucuronidation” value [1] is reported as “extensively glucuronidated”.

For `O=c1[nH]c(=O)n(CCc2ccccc2)cc1O` [compound 32, 5-Hydroxy-1-phenethylpyrimidine-2,4(1H,3H)-dione], the “glucuronidation” value [1] was “fully glucuronidated within 60 min”.

With `O=c1[nH]nc(CCc2cc(F)cc(F)c2)cc1O` [8b, reference compound] the “glucuronidation” value [1] was “some resistance to glucuronidation” and the AUC(0-t) [3] was 12700 ng·h/mL.

With `O=c1[nH]c(=O)n(Cc2cccc3ccccc23)nc1O` [11h, 6-Hydroxy-2-(naphthalen-1-ylmethyl)-1,2,4-triazine-3,5(2H,4H)-dione] the “effect of FAD concentration on IC50” value ([4]; escalation of FAD concentration from 10 to 100 μM) was “did not affect IC50 value”, the mode of inhibition ([4]; versus D-serine, double reciprocal plot) was “competitive inhibition” and the “glucuronidation” value [1] was “completely resistant to glucuronidation”. For the same molecule, the “stability in mouse liver microsomes in the presence of NADPH” value [2] was “stable”, the mutagenicity [5] was “No evidence of mutagenicity” and the hERG channel inhibition [6] was “no inhibition at concentrations up to 25 μM”. For the same molecule, the “inhibition, NMDA receptor (agonist)” value [7] was ≤5% inhibition at 10 μM, the “inhibition, NMDA receptor (phencyclidine)” value [8] was ≤5% inhibition at 10 μM and the “inhibition, NMDA receptor (MK801)” value [9] was ≤5% inhibition at 10 μM. The “inhibition, glycine receptor (strychnine sensitive)” value [10] was ≤5% inhibition at 10 μM and the “effect on plasma clearance of D-serine” value [11] was “substantially reduced”.

In the case of `O=c1[nH]c(=S)n(CCc2ccccc2)nc1O` [compound 30, 6-Hydroxy-2-phenethyl-3-thioxo-3,4-dihydro-1,2,4-triazin-5(2H)-one], the “glucuronidation” value [1] is reported as “metabolically stable against glucuronidation”.
